From PMC11094793, “Discovery of LLC0424 as a Potent and Selective in Vivo NSD2 PROTAC Degrader” (Journal of Medicinal Chemistry, 2024)
Where two headings read alike, the source gives them in different places.

Columns and labels:
SEM cells [1] = test: RNA-seq global transcriptome analysis; type: cell-based, human; conditions: 14 days of treatment, versus DMSO
Protocol: NSD2 is the primary methyltransferase that transfers dimethyl to H3K36 in ALL with NSD2 gain-of-function mutation. Therefore, the effects of LLC0424 on H3K36me2 was evaluated in SEM and RPMI-8402 cells. […] Meanwhile, LLC0424 treatment also led to downregulation of H3K36Me2 in RPMI-8402 cells within 24 h (Figure 6B). […] We also conducted a colony formation assay to evaluate the effect of LLC0424 on the stem cell-like property of the leukemia cells. […] As LLC0424 leads to strong degradation of both NSD2-L and NSD2-S, the phenotypic changes upon LLC0424 treatment result from complete inactivation of NSD2 activity, including adaptor-like function of NSD2-S and SET-domain dependent enzymatic function of NSD2-L. The specific contributions of NSD2 isoforms warrant future investigation. To characterize the genes affected by LLC0424 treatment, we performed global transcriptome analysis of SEM cells treated by DMSO, LLC0424, or LLC0424N. […]
Total RNA was isolated from cells using the miRNeasy Mini Kit (Qiagen). […] Paired-end libraries were sequenced with the Illumina HiSeq 2500 (2 × 100 nucleotide read length) with sequence coverage to 15–20 M paired reads. […] Then we performed the analysis in R. First, EdgeR (edgeR_3.39.6) was used to perform read counts normalization and filtering (counts >10) and then Limma-Voom (limma_3.53.10) was used to analyze differential expression.

RPMI-8402 cells [2] = test: Colony formation in soft agar; type: cell-based, human; conditions: 2 μM, 30 days, INT staining
Protocol: Colony formation in soft agar was conducted in 12-well plates, with the bottom layer containing 750 μL of 0.8% agarose in 10% FBS/cell media and the top layer containing 0.4% agarose (SEM cells or RPMI-8402 cells). LLC0424 was added every 3 days to the liquid layer on top agarose to reach a final concentration of 2 μM. At the 30 days of treatment, the cells were stained with iodonitrotetrazolium chloride (INT) by adding 500 μL 1× INT PBS solution into each well. After the staining, images were taken using brightfield microscope and plate scan was conducted using Epson Perfection V700 Photo. Colony number counting was performed using ImageJ.

SEM cells [3] = test: Cell viability assay (CellTiter-Glo, 7 days), SEM; type: cell-based, human
Protocol: (§1) Cells were plated in 50 μL of the corresponding media in 96-well plates. A 2-fold dilution series of 2* concentrated LLC0424 was prepared in a medium with the highest concentration being 60 μM. Then 50 μL of the 2× compound-containing mixture was added to each well with 6 replicates for each concentration, reaching 1× concentration, with the highest concentration being 30 μM. The plate was incubated for 7 days. At the end point, the CellTiter-Glo assay (Promega) was then performed according to the manufacturer’s instruction to determine cell proliferation. The luminescence signal intensity of each well was acquired on an Infinite M1000Pro microplate reader and the data was analyzed using GraphPad Prism software (GraphPad Software).

RPMI-8402 cells [4] = test: Cell viability assay (CellTiter-Glo, 7 days), RPMI-8402; type: cell-based, human
Protocol: as §1

[5] = biological target: T1, NSD2 (both long and short isoforms) (Homo sapiens, UniProt O96028); test: NSD2 degradation by immunoblotting in ALL cell lines RPMI-8402 and SEM (NSD2 E1099K); type: cell-based; conditions: RPMI-8402 and SEM cells; 0.5 and 2 μM for 24 h or 2 μM for 12 and 24 h
T1 sequence (O96028 211-350 limits assumed): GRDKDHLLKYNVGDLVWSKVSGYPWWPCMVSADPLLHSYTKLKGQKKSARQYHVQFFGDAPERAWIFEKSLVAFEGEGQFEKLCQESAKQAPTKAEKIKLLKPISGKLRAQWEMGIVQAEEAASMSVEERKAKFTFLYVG
Protocol: As previous studies have shown that ALL cell lines with NSD2 gain-of-function mutation are more dependent on NSD2 regarding H3K36me2 level and cell proliferation,[7],[8] we further characterized LLC0424 in ALL cell lines with NSD2 E1099K gain-of-function mutation (RPMI-8402 and SEM). We first treated these cells with LLC0424 with different concentrations for 24 h. […] In addition, we compared the degradation efficiency of LLC0424 with the two previously published NSD2 degraders 6 and 7 at different concentrations and time points.
After treatment, the cultured cells were collected and rinsed with phosphate-buffered saline (PBS) in room temperature. The cells were treated with RIPA buffers (ThermoFisher Scientific) supplemented with Halt Protease and Phosphatase Inhibitor Cocktail (ThermoFisher Scientific). After sonication and centrifugation, the total amount of protein in the cell lysates was measured by Pierce Bovine Serum Albumin Standard Pre-Diluted Set (ThermoFisher Scientific). After mixed with LDS-sample buffer (Invitrogen) supplemented with Sample Reducing Agent (Invitrogen) and heated in 70 °C for 10 min, equal amount of protein was loaded into NuPAGE 4–12%, Bis-Tris Protein Gel (ThermoFisher Scientific) or NuPAGE 3–8%, Tris-Acetate Protein Gel (ThermoFisher Scientific), and blotted with primary antibodies. After incubated with HRP-conjugated secondary antibodies, the membranes were developed with ECL Prime Western Blotting Detection Reagent (cytiva) and imaged on Odyssey Fc Imager (LiCOR Biosciences).

NSD2 [6] = biological target: T2, NSD2 (Homo sapiens, UniProt O96028); test: Compound screening: NSD2 degradation by immunoblotting in VCaP cells; conditions: 24 h; for Dmax at 2 µM: VCaP
T2 sequence (O96028 1-1365): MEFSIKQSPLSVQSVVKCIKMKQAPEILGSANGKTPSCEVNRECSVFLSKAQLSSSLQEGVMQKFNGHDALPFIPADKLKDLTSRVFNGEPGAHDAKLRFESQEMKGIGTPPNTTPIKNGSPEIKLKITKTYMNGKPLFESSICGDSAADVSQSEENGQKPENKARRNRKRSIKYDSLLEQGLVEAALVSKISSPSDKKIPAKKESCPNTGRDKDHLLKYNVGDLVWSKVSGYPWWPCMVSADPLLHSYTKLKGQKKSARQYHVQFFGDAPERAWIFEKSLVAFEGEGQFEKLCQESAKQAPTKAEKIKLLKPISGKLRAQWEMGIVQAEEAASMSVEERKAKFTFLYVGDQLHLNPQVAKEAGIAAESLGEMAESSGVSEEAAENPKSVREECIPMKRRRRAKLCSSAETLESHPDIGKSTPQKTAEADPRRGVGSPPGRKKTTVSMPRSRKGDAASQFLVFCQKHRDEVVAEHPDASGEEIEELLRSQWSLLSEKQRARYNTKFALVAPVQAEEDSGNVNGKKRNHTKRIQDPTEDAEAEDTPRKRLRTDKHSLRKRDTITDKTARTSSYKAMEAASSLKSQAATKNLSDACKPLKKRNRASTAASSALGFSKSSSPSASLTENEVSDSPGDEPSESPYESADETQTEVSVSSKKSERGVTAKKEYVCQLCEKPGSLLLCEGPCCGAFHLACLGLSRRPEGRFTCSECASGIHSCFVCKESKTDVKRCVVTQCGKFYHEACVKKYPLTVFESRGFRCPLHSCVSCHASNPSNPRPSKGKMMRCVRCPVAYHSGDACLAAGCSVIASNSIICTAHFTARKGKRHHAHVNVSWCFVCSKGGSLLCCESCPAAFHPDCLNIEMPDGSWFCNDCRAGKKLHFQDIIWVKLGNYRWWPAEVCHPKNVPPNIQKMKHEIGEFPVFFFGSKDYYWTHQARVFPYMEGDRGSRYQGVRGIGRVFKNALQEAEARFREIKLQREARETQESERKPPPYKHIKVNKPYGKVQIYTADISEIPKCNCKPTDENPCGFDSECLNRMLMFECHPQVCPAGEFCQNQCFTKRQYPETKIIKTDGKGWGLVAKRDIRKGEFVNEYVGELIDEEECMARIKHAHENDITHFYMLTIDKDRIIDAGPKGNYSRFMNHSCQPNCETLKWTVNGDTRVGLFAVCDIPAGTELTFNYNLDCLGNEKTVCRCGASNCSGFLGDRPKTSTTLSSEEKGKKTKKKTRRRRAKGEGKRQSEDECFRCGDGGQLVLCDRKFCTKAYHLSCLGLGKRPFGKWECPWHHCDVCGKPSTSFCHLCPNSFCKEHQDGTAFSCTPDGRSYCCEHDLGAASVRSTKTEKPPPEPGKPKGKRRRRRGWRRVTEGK
Protocol: After treatment, the cultured cells were collected and rinsed with phosphate-buffered saline (PBS) in room temperature. The cells were treated with RIPA buffers (ThermoFisher Scientific) supplemented with Halt Protease and Phosphatase Inhibitor Cocktail (ThermoFisher Scientific). After sonication and centrifugation, the total amount of protein in the cell lysates was measured by Pierce Bovine Serum Albumin Standard Pre-Diluted Set (ThermoFisher Scientific). […] After incubated with HRP-conjugated secondary antibodies, the membranes were developed with ECL Prime Western Blotting Detection Reagent (cytiva) and imaged on Odyssey Fc Imager (LiCOR Biosciences).
Western blot was then performed as previously described to detect NSD2 degradation.

NSD2 [7] = system: NSD2; design: method as in PMID 36976643; conditions: U2OS cells, 24 h treatment; cited from earlier work
NSD2 [8] = biological target: T3, NSD2 (Homo sapiens, UniProt O96028); test: Validation of mechanism of action: pretreatment rescue of LLC0424-mediated NSD2 degradation; type: cell-based; conditions: RPMI-8402 and SEM cells; pretreated 2 h, then 2 μM LLC0424 for 12 h
T3 sequence (O96028 211-350 limits assumed): T1 sequence (O96028 211-350 limits assumed)

CN1C(=O)CCC(N2C(=O)c3ccc(N4CCC(NC(=O)c5ccc(NC(=O)c6ccc(CN(C(=O)c7ccc8c(c7)OCC(=O)N8)C7CC7)cc6)cc5)CC4)cc3C2=O)C1=O (stereo not shown) [LLC0424N]
differentially expressed genes (transcriptome) (SEM cells [1]): little transcription level changes | formation of cell colonies (RPMI-8402 cells [2]): not | IC50 (growth, cell viability) (SEM cells [3]): much less active | IC50 (growth, cell viability) (RPMI-8402 cells [4]): much less active | NSD2 degradation, comparison of degraders [5]: much less active

NCCCCCCNC(=O)c1ccc(NC(=O)c2ccc(CN(C(=O)c3ccc4c(c3)OCC(=O)N4)C3CC3)cc2)cc1 [compound 7, reference compound]
% Degradation (NSD2 [6]; 2 μM, VCaP cells, immunoblotting): 30% | DC50 (NSD2 [7]): 350 nM | Dmax (NSD2 [7]): 79% | NSD2 degradation, comparison of degraders [5]: much less active

O=C1CCC(N2C(=O)c3ccccc3C2=O)C(=O)N1 (stereo not shown) [thalidomide]
effect of pretreatment on LLC0424-mediated NSD2 degradation (NSD2 [8]): reversed the LLC0424-mediated NSD2 degradation

Cc1ncsc1-c1ccc(CNC(=O)[C@@H]2C[C@@H](O)CN2C(=O)[C@H](C(C)C)N2Cc3ccccc3C2=O)cc1 [VL-285]
effect of pretreatment on LLC0424-mediated NSD2 degradation (NSD2 [8]): not

O=C1CCC(N2C(=O)c3cccc(NCCCCCCNC(=O)c4ccc(NC(=O)c5ccc(CN(C(=O)c6ccc7c(c6)OCC(=O)N7)C6CC6)cc5)cc4)c3C2=O)C(=O)N1 (stereo not shown) [10c, N-Cyclopropyl-N-(4-((4-((6-((2-(2,6-dioxopiperidin-3-yl)-1,3-dioxoisoindolin-4-yl)amino)hexyl)carbamoyl)phenyl)carbamoyl)benzyl)-3-oxo-3,4-dihydro-2H-benzo[b][1,4]oxazine-7-carboxamide]
Dmax at 2 µM (NSD2 [6]; read-out: 2.0 μM Degradation % (VCaP)): 25% | Dmax at 2 µM (NSD2 [6]; read-out: % Degradation): 25%
